Legend:
AMPK kinase = test: AMPK enzyme activity assay (CycLex AMPK Kinase Assay Kit); assay type: biochemical; settings: indicated concentrations, n=3, ** p<0.005, ***p<0.001
Source text: The CycLex AMPK Kinase Assay Kit (CycLex Co., Ltd., Nagano, Japan) was used to detect the activation of AMPK by D561-0775. AMP was used as positive control, compound c was used as AMPK inhibitor, and AMPK kinase was used for representing the basal level.

AMPK = test: Western blot analysis of AMPK phosphorylation; assay type: cell-based; settings: H1975 cells, 24 hours
Procedure: (§1) After incubating H1975 cells with D561-0775 for 24 hours, H1975 cells were harvested and washed with cold 1×PBS. Then, cells were lysed with ice-cold RIPA lysis buffer with protease and phosphatase inhibitors added to extract the cell protein extraction. The supernatants were collected by centrifugation at 12,000 g, for 5 minutes. The quantitation of total protein extraction was measured by Bio-Rad DCTM protein assay kit (Bio-Rad, Philadelphia, Pa., USA). Then 30 μg of protein was loaded and electrophoretically separated on 8% SDS-PAGE gel and then transferred to Nitrocellulose (NC) membrane. Membranes were blocked with 5% non-fat milk and […] containing 0.1% Tween-20 (TBST) for 1 hour at room temperature. After 1 hour, membranes were incubated with primary anti-bodies (1:1000 dilution) against GAPDH, total/phosphor-ACC, total-AMPK, and (1:500 dilution) against phosphor-AMPK, at 4° C. with gently shaking overnight. Membranes were washed with TBST for 3 times (5 minutes/time), and incubated with secondary fluorescent antibody (1:10000 dilutions) for 1 hour at room temperature. After rewashing the membranes with TBST for 3 times (15 minutes/time), the stripes were visualized by LI-COR Odessy scanner (Belfast, Me., USA).

H1975 cells [1] = test: Apoptosis assay (Annexin V/PI flow cytometry, morphology observation); assay type: cell-based; settings: 48 h
Procedure: H1975 cells (1×10^5 cells/well) were seeded in a 6-well plate for 24 hours, and treated with the indicated concentrations of D561-0775 for an additional 48 hours at 37° C. After 48 hours, the cells were washed by ice-cold 1×PBS once and harvested by trypsination. Then cells were centrifuged, collected and re-suspended in ice-cold 1×PBS. After removing the supernatants, cell pellets were re-suspended in 100 μL 1× Annexin-binding buffer. The cells were then double-stained with Annexin-V FITC and PI (100 μg/mL) of 2 μL respectively for 15 min at room temperature in dark. After that, 300 μL 1× Annexin-binding buffer was added. Apoptotic cells were quantitatively counted by a BD Aria III Flow Cytometer (BD Biosciences, San Jose, Calif., USA)

ACC = test: Western blot analysis of ACC phosphorylation; assay type: cell-based; settings: H1975 cells, 24 hours
Procedure: as §1

H1975 cells [2] = test: MTT cytotoxicity assay; assay type: cell-based; settings: 72 h treatment, read-out: IC50 (cell proliferation, MTT)
Procedure: H1975 was purchased from ATCC (American type culture collection) and was cultivated with RPMI 1640 medium supplement with 10% fetal bovine serum (Gibco, Big Cabin, Oklahoma, Me., USA), 100 U/mL, penicillin and 100 μg/mL and streptomycin (Gibco, Big Cabin, Oklahoma, Me., USA). The cells were cultured in incubator with 5% CO2 at 37° C.
Cells were seeded in a 96-well microplate with 5000 cells/well confluence, and put into the incubator overnight for cell adhesion. Different concentrations of the drug D561-0775 were added with Dimethyl sulfoxide (DMSO) as vehicle control. The microplates were incubated for another 72 hours. The whole experiment was repeated in triplicate. 10 μL of MTT (5 mg/mL) solution was added to each well. The plate was placed back into the incubator for 4 hours. After that, 100 μL of resolved solution (10% SDS and 0.1 mM HCL) was added to each well. Before dissolving the formazan crystals, the microplate was put back into the incubator for another 4 hours. The absorbance of the plate was measured at 570 nm with reference at 650 nm by a microplate reader (Tecan, Morrisville, N.C., USA). Cell viability was calculated by percentages of the absorbance of the treatment group divided by the absorbance of untreated group. At least three independent experiments were performed for data analysis and presentation.

[3] = 20 μM treatment group, **p<0.01, n=3

N#Cc1nc(-c2ccc(COc3ccc(Br)cc3)o2)oc1NCc1cccnc1 [D561-0775]
AMPK kinase activity (fold of AMPK kinase alone group) (AMPK kinase): enhanced in a dose-dependent manner | phosphorylation of AMPK (AMPK): activated phosphorylation of both AMPK and ACC in a dose-dependent manner | percentage of apoptotic cells vs control group (H1975 cells [1]; [3]): significant higher percentage of apoptotic cells | percentage of viable cells vs control group (H1975 cells [1]; [3]): lower percentage of viable cells | apoptosis induction (flow cytometry) (H1975 cells [1]; Annexin V/PI): induced significant level of apoptosis in a dose-dependent manner | cell morphology (H1975 cells [1]; morphology observation): floated and rounded-up starting at 20 μM | phosphorylation of ACC (ACC): activated phosphorylation of both AMPK and ACC in a dose-dependent manner | IC50 (H1975 cells [2]): 9.59 ± 1.73 µM

From US9364469B1, “Identification of a new AMPK activator for treatment of lung cancer” (Macau University of Science and Technology, priority 2015, dated 2016)
